Laboratory results reported in patent publication US9540691B2, “Assays and methods for selecting a treatment regimen for a subject with depression” (THE GENERAL HOSPITAL CORPORATION, priority 2011, dated 2017).
Like-named read-outs stand apart in the source and are kept apart here.

Experiments:
[1] = test system: remitters with MDD at end of double-blind phase; conditions: for Relapsers (HAM-D-17 > 15) during 12-month maintenance phase: 15 mg/day 6(S)-5-MTHF as an adjuvant
Description: During each visit, patients are administered the HAM-D-28, the CGI, the QIDS-SR, the SAFTEE-SI, the MGH-CPFQ, and the MGH-SFQ (See, e.g., Table 10 below). […] Subjects are also allowed to change their antidepressant during the course of the follow-up, if deemed appropriate. For patients who refuse the 12 months of free follow-up care, a referral to a psychiatrist is offered.

[2] = test system: patients with major depressive disorder (MDD) resistant to treatment with SSRIs
Description: Using the sequential parallel design […] For those randomly assigned to the placebo/placebo sequence, both responders and non-responders to placebo during the first phase (n=25) remain on placebo during the second phase. […] Data from the previous double-blind, placebo-controlled study (Trial 1) can be pooled into the instant study (Trial 2) to provide a more accurate estimate of the placebo effect size, with a weighted average from the two Phases 1 (one from Trial 1 and one from Trial 2) and two Phases 2 (one from Trial 1 and one from Trial 2).
The primary efficacy measure can include the change in 17-item Hamilton Rating Scale for Depression (HAM-D-17) score. […] A remission is, for example, defined as a HAM-D-17 score less than 8 at endpoint. Secondary measures of efficacy can include change in CGI-severity, with “clinical response defined” as CGI-S of 1 or 2 at endpoint. Patients with a CGI-I score greater than 5 at any post baseline visit or a 50 percent or greater worsening of depressive symptoms from baseline to that visit are discontinued from the study. Subjects are also discontinued from the study with any emergence of suicidality, homicidality, mania, or psychosis. Additional exemplary instruments that can be administered according to the study schedule include the following: • (1) Structured Clinical Interview for DSM-IV: The SCID-I/P, administered by the clinician, proceeds by modules to diagnose the different Axis I disorders. Questions are asked exactly as written, and each is based on the individual criteria from DSM-IV. Answers are generally rated on a scale of 1-3 (1=doubtful, 2=probable, 3=definite), and, based on the number of positive answers, a diagnosis is determined by a clinician. While the entire SCID-UP is administered at screen, the mood module is administered at each follow up visit. • (2) The MGH Antidepressant Treatment History Questionnaire (MGH-ATR): The MGH-ATR provides specific criteria for the adequate dose and adequate length of a trial for it to be considered a failure, thus allowing clinicians to systematically collect data aimed at assessing the degree of treatment-resistance of the current major depressive episode. • (3) The 28-item Hamilton Depression Scale (HAM-D-28): This version allows scoring of the HAM-D-17, 21-, 25-, and 28-item scales. This instrument is completed by the clinician by using a structured interview and defined anchor points, and aims to quantify the degree of depression over the past 7 days. The HAM-D is the most widely studied instrument for depression, and its reliability and validity are high. • (4) Clinical Global Impressions-Severity and Improvement (CGI-S, CGI-I): These two instruments are scored 1-7 by the clinician based on assessment of the patient's clinical status. They measure, based on history and scores on other instruments: a) Depressive severity (CGI-S) and b) Clinical Improvement (CGI-I). […] Safety Measurements
Data are entered and error-checked at each clinical site involved in the study. Study staff and subjects may have the option to enter self-evaluations into the system directly using DatStat Illume™. The process of data entry is supervised by the DCRP staff. Once the data set is entered and checked, analyses are conducted. Both a completer analysis of all patients finishing the trial and an intent-to-treat analysis examining all patients enrolled into the trial are used to define the severity of depression at endpoint. Examination of both study completers and all patients randomized can provide the broadest assessment of the effects of treatment in trials of such kind. The data from Trial 2 can be pooled with those from Trial 1 with the sequential parallel comparison design, to provide an estimate of the placebo response based on a larger sample size. […] Let p1, q1 be the response rates to the first administration of drug and placebo respectively and let p2, q2 be the responses rates to the second treatment.

[3] = test system: patients with major depressive disorder (MDD) resistant to treatment with SSRIs; remark: listed apart in the source
Description: Documentation of the presence of any side effect or adverse event is completed at every visit using the SAFTEE-SI. Subjects can contact a clinician at any time between visits concerning adverse events or worsening of symptoms. Suicidal ideation is assessed at each visit. Subjects who are felt by the study clinician to be at high risk for suicide are discontinued from the study and referred for hospitalization and further treatment if clinically indicated (See Tables 4 & 5 below).
One-way analysis of variance can be used to assess differences in total number of SAFTEE-SI AEs between baseline and endpoint.

[4] = 7.5 mg/day adjunct to SSRI, Phase 1
[5] = 7.5 mg/day adjunct to SSRI, Phase 2 (Phase 1 completers/non-responders only)
[6] = 7.5 mg/day adjunct to SSRI, pooled Phases 1 and 2 (SPCD)
[7] = L-methylfolate 15 mg (n = 42) with SSRI
[8] = L-methylfolate 15 mg vs placebo

`CN1c2c(nc(N)[nH]c2=O)NC[C@@H]1CNc1ccc(C(=O)N[C@@H](CCC(=O)O)C(=O)O)cc1` [6(S)-5-MTHF, 6(S)-5-methyltetrahydrofolate] was tested, and the “Relapsers (HAM-D-17 > 15) during 12-month maintenance phase” value ([1]; Trial 1 remitters (2 entering)) was 0, the “Relapsers (HAM-D-17 > 15) during 12-month maintenance phase” value ([1]; Trial 2 remitters (9 entering)) was 0 and the “relapse during 12-month maintenance phase (in words)” value ([1]; remitters at end of double-blind phase, adjunctive 15 mg/day) was “did not have a relapse”. For the same compound, the “efficacy as an adjunct to the SSRIs (in words)” value ([2]; 7.5 mg/day) was “not effective”, the “CGI-S Mean score reduction (SD)” value [2, 4] was −0.5 (0.9) and the “HDRS-17 % Remission” value [2, 4] was 11.1% (4). For the same compound, the “HDRS-17 % Response” value [2, 4] was 19.8% (7), the “HDRS-17 Mean score reduction (SD)” value [2, 4] was −4.3 (5.0) and the “QIDS-SR % Remission” value [2, 4] was 0.0% (0). The “QIDS-SR % Responsive” value [2, 4] was 25.0% (9), the “QIDS-SR Mean score reduction (SD)” value [2, 4] was −4.6 (5.1) and the “CGI-S Mean score reduction (SD)” value [2, 5] was −0.5 (0.7). For the same compound, the “HDRS-17 % Remission” value [2, 5] was 14.2% (5), the “HDRS-17 % Response” value [2, 5] was 17.1% (6) and the “HDRS-17 Mean score reduction (SD)” value [2, 5] was −3.1 (4.2). For the same compound, the “QIDS-SR % Remission” value [2, 5] was 8.5% (3), the “QIDS-SR % Responsive” value [2, 5] was 8.5% (3) and the “QIDS-SR Mean score reduction (SD)” value [2, 5] was 4.8 (4.1). The “CGI-S Mean score reduction” value [2, 6] was −0.53, the “HDRS-17 Mean score reduction” value [2, 6] was −3.70 and the “QIDS-SR % Remission” value [2, 6] was 4.3%. For the same compound, the “QIDS-SR % Responsive” value [2, 6] was 19.8%, the “QIDS-SR Mean score reduction” value [2, 6] was −0.25 and the “increase in response and remission rate compared to placebo with SSRIs” value ([2]; 15 mg/day in second phase, drug/drug sequence) was “at least 2 fold”. The “response and remission rate” value ([2]; dose increased from 7.5 to 15 mg/day in second phase, drug/drug sequence, placebo with SSRIs 9%, p=0.1) was 24%, the “Cardiovascular side effects, Frequency (%)” value [3, 7] was “(0%)” and the “Cardiovascular side effects, Frequency (number of subjects)” value [3, 7] was 0. For the same compound, the “Gastrointestinal side effects, Frequency (number of subjects)” value [3, 7] was 7, the “Infectious side effects, Frequency (number of subjects)” value [3, 7] was 5 and the “Miscellaneous side effects, Frequency (%)” value [3, 7] was “(2.4%)”. The “Miscellaneous side effects, Frequency (number of subjects)” value [3, 7] was 1, the “Psychological side effects, Frequency (%)” value [3, 7] was “(9.5%)” and the “Psychological side effects, Frequency (number of subjects)” value [3, 7] was 4. The “Sexual side effects, Frequency (%)” value [3, 7] was “(2.4%)”, the “Sexual side effects, Frequency (number of subjects)” value [3, 7] was 1 and the “Sleep side effects, Frequency (%)” value [3, 7] was “(2.4%)”. For the same compound, the “Sleep side effects, Frequency (number of subjects)” value [3, 7] was 1, the “Somatic side effects, Frequency (number of subjects)” value [3, 7] was 6 and the “Cardiovascular side effects, NNH” value [3, 8] was “=placebo”. For the same compound, the “Gastrointestinal side effects, NNH” value [3, 8] was 53, the “Infectious side effects, NNH” value [3, 8] was “<placebo” and the “Miscellaneous side effects, NNH” value [3, 8] was “<placebo”. For the same compound, the “Psychological side effects, NNH” value [3, 8] was “<placebo”, the “Sexual side effects, NNH” value [3, 8] was 98 and the “Sleep side effects, NNH” value [3, 8] was “<placebo”. The “Somatic side effects, NNH” value [3, 8] was “<placebo”, the “number of adverse events by SAFTEE-SI vs placebo (in words)” value ([3]; SSRI + 15 mg/day) was “no significant differences” and the “discontinuation from the study due to overall adverse side-effects or exclusion events (in words)” value ([3]; Trial 2, FIG. 3E) was “no difference”.
